# Publication PMC10534827 (Pharmaceuticals, 2023)
# Where two headings read alike, the source gives them in different places.
# Assays:
# [1] = test system: Neuro-2a cells; experiment: MTT cytotoxicity, Neuro-2a; format: cell-based, murine; details: read-out: Neuro-2a IC50
# [2] = target: T1, Acetylcholinesterase from Electrophorus electricus (Electrophorus electricus, UniProt O42275); experiment: biochemical; format: biochemical; details: for inhibition at 1000 µM: 1 mM solution of the tested compound, read-out: Activity [%] (inhibition percentage of AChE); for IC50: mean ± SD of three experiments, read-out: AChE IC50
# T1 construct: purchased Sigma-Aldrich, Hamburg, Germany
# Procedure: (§1) AChE and BChE inhibitory activity was measured using the microplate assay described by Ellman et al. [68] with the modifications added by López et al. [36]. The compounds were tested at concentrations between 10^−3 and 10^−8 M. First, all compounds were dissolved in 1% DMSO in a concentration of 1 mg/mL.
# (§2) Incubation of the plates was performed at room temperature for 30 min. Then, 100 μL of substrate solution were added to start the enzymatic reaction. […] Enzyme activity was calculated as an inhibition percentage compared to an assay including buffer instead of an inhibitor. […] All data were analyzed with the software package Prism 3 (Graph Pad Inc., San Diego, CA, USA).
# [3] = target: T2, butyrylcholinesterase from equine serum (Equus caballus, UniProt P81908); experiment: biochemical; details: for inhibition at 1000 µM: read-out: Activity [%] (inhibition percentage of BChE); for SI BChE: IC50(AChE)/IC50(BChE)
# T2 construct: butyrylcholinesterase from equine serum; purchased Sigma-Aldrich, Hamburg, Germany; host or cells: equine serum
# Procedure: as §1, §2
# [4] = test system: CCL-1 cells; experiment: MTT cytotoxicity, CCL-1 normal fibroblasts; format: cell-based, murine; details: read-out: CCL-1 IC50
# [5] = test system: SH-SY5Y cells; experiment: MTT cytotoxicity, SH-SY5Y; format: cell-based, human; details: read-out: SH-SY5Y IC50
# [6] = Lipid peroxidation in linoleic acid system, FTC method; details: 10 mM compound, 500 nm
# Procedure: The antioxidant activity of studied compounds against lipid peroxidation was measured through ammonium thiocyanate assay as described by Takao et al. [66] with some modifications. […] A 10 μL aliquot of the reaction solution was then added to 200 μL of 70% (v/v) ethanol and 10 μL of 30% (w/v) ammonium thiocyanate. […] Aliquots were assayed every 24 h until the day after the absorbance of the control solution (without compound) reached maximum value. BHT (10 mM) was used as positive control.
# [7] = DPPH radical scavenging activity; details: 300 μL of 5 mM compound in MeOH, 30 min, 517 nm
# Procedure: The DPPH (2,2-diphenyl-1-picryl-hydrazyl-hydrate) free radical scavenging activity method is based on the neutralization of the DPPH radical by an antioxidant.
# Free radical scavenging activity was measured using DPPH method [69, 70] with slight modification. Here, 300 μL of 5 mM solutions of tested compounds in MeOH were added to 2 mL methanolic solution of DPPH (2 mg/mL). […] Results were evaluated as percentage scavenging of radical:DPPH radical scavenging activity (%) = ((Abscontr. − Abssample)/Abscontr.) ×100, where Abscontr. is the absorbance of DPPH radical with 300 μL MeOH, Abssample is the absorbance of DPPH radical solution mixed with sample. BHT was used as positive control.
# [8] = Ferric reducing antioxidant power (FRAP); details: 150 μL of 5 mM compound, 30 min, 593 nm, Trolox equivalent
# [9] = ABTS radical scavenging assay; details: 734 nm after 5 min
# Procedure: These compounds were also tested for their antioxidant activities by using the ABTS [2,2′-azinobis (3-ethylbenzothiazoline-6-sulfonic acid)] cation radical decolorization method (Table 4). The BHT [41] was used for comparison. The ABTS cation radical is produced by oxidation of the ABTS molecule with strong oxidizing agents, such as potassium persulfate in water.
# For ABTS assay, the procedure followed the method of Arnao et al. [71] with some modifications. […] The working solution was then prepared by mixing the two stock solutions in equal quantities and allowing them to react for 14 h at room temperature in the dark. […] A fresh ABTS solution was prepared for each assay. […] The ABTS scavenging capacity of the compound was calculated as follows:ABTS radical scavenging activity (%) = ((Abscontr. − Abssample)/Abscontr.) ×100, where Abscontr. is the absorbance of DPPH radical with 300 μL MeOH, Abssample is the absorbance of DPPH radical solution mixed with the sample. […] BHT was used as positive control.
# [10] = Mus musculus, N2a, MTT, 72 h exposure
# [11] = 1 mM solution of the tested compound
# [12] = mean ± SD of three experiments, read-out: BChE IC50
# [13] = Mus musculus, Fibroblast, MTT, 72 h exposure
# [14] = Homo sapiens, SH-SY5Y, MTT, 72 h exposure
# T1 sequence (O42275 24-633): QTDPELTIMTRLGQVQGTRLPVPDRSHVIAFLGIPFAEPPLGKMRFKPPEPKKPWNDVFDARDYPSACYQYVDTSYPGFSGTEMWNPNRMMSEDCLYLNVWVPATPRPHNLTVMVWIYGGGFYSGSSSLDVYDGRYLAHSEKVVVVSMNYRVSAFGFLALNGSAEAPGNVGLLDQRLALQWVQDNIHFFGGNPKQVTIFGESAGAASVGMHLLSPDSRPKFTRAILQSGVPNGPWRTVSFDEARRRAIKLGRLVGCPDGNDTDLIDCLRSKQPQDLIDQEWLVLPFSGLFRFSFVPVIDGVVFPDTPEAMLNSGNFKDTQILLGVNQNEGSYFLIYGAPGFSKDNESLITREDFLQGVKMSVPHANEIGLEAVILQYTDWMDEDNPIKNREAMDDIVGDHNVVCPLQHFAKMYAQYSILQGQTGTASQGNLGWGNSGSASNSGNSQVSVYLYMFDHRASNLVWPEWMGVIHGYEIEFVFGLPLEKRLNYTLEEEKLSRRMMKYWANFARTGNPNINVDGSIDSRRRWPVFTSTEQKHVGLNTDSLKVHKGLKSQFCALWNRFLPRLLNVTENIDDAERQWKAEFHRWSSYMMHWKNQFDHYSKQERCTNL
# T2 sequence (P81908 whole entry): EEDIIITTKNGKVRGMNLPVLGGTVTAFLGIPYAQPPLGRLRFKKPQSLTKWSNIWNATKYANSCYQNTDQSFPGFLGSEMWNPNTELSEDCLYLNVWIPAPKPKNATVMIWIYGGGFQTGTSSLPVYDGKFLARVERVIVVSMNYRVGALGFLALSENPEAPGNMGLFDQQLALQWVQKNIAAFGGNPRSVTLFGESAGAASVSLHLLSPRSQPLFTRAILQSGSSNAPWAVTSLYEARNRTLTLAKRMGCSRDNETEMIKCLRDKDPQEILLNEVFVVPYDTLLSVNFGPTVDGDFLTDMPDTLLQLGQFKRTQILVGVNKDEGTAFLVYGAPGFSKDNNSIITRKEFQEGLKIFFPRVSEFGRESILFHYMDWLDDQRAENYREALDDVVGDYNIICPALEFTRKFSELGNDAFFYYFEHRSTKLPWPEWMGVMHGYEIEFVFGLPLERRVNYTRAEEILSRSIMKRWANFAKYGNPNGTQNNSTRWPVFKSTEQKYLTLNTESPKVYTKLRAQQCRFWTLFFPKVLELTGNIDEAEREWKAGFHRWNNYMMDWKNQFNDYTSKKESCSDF
Compound,"IC50 [1, 10]",inhibition at 1000 µM [2],IC50 [2],"inhibition at 1000 µM [3, 11]","IC50 [3, 12]","IC50 [4, 13]","IC50 [5, 14]",further results
"O=C(N/N=C/c1c(O)cc(O)cc1O)C1CCN(Cc2ccccc2)C1 (stereo not shown) [3h, 1-benzyl-N’-[(E)-(2,4,6-trihydroxyphenyl)methylidene]pyrrolidine-3-carbohydrazide]",> 300 µM,73.3%,351 ± 17.9 µM,76.5%,179 ± 11.5 µM,> 300 µM,> 300 µM,SI BChE [3]: 1.96
COc1ccc2c(c1)c(/C=N/NC(=O)CNC(=O)OC(C)(C)C)cn2C [3k],> 300 µM,3.26%,> 1000 µM,30.3%,> 1000 µM,> 300 µM,131 ± 11.8 µM,–
"COc1cc2c(cc1OC)C(=O)C(CC1CCN(Cc3ccccc3)CC1)C2 (stereo not shown) [Donepezil, 1-Benzyl-4-[(5,6-dimethoxy-1-indanon-2-yl)methyl]piperidine, reference compound]",–,–,–,–,–,–,–,inhibition at 1000 µM [3]: 69.1%
N’-[(E)-(5-methoxy-1-methyl-1H-indol-3-yl)methylidene]benzenesulfonohydrazide [5f],–,–,> 1000 µM,–,> 1000 µM,–,–,"IC50 ([1]; MTT, 72 h exposure): 135 ± 10.9 µM; IC50 ([4]; MTT, 72 h exposure): 167 ± 11.8 µM; IC50 ([5]; MTT, 72 h exposure): 132 ± 10.3 µM"
"Cc1ccc(S(=O)(=O)N/N=C/c2cn(Cc3ccccc3)c3ccccc23)cc1 [5g, N’-[(E)-(1-benzyl-1H-indol-3-yl)methylidene]-4-methylbenzenesulfonohydrazide]",135 ± 10.9 µM,2.18%,> 1000 µM,40.6%,> 1000 µM,50.7 ± 3.6 µM,92.1 ± 9.3 µM,Absorbance Day 1 [6]: 0.82 ± 0.04; Absorbance Day 2 [6]: 0.87 ± 0.09; Absorbance Day 3 [6]: 0.88 ± 0.09; Absorbance Day 4 [6]: 0.87 ± 0.05; Absorbance Day 5 [6]: 0.88 ± 0.03; DPPH Activity [7]: 45.72 ± 1.38%; FRAP [8]: 15.87 ± 1.13 μMTE; ABTS Activity [9]: ≥100%; IC50 [9]: 2080 ± 100 µM
"COc1ccc2c3c1O[C@H]1C[C@@H](O)C=C[C@@]31CCN(C)C2 [Galanthamine, reference compound]",–,–,–,–,–,–,–,"IC50 ([1]; Mus musculus, N2a, 72 h): > 300 µM; inhibition at 1000 µM [3]: 85.8%; IC50 ([4]; Mus musculus, Fibroblast, 72 h): > 300 µM; IC50 ([5]; Homo sapiens, SH-SY5Y, 72 h): > 300 µM"
"O=C(N/N=C/c1ccc(O)cc1)C1CCN(Cc2ccccc2)C1 (stereo not shown) [3e, 1-benzyl-N’-[(E)-(4-hydroxyphenyl)methylidene]pyrrolidine-3-carbohydrazide]",> 300 µM,3.84%,> 1000 µM,12.4%,> 1000 µM,> 300 µM,170 ± 10.6 µM,AChE inhibitory activity in words [2]: practically inactive
"COc1ccc2[nH]cc(CCNC(C)=O)c2c1 [Melatonin, reference compound]",–,1.24%,> 1000 µM,–,–,–,–,Absorbance Day 1 [6]: 0.75 ± 0.07; Absorbance Day 2 [6]: 0.80 ± 0.09; Absorbance Day 3 [6]: 0.89 ± 0.05; Absorbance Day 4 [6]: 0.89 ± 0.02; Absorbance Day 5 [6]: 0.94 ± 0.01; IC50 [3]: > 1000 µM; inhibition at 1000 µM [3]: 4.21 ± 0.88%
"COc1ccc(/C=N/NC(=O)c2c[nH]c3ccccc23)cc1OC [3o, N’-[(E)-(3,4-dimethoxyphenyl)methylidene]-1H-indole-3-carbohydrazide]",126 ± 10.7 µM,–,> 1000 µM,–,> 1000 µM,> 300 µM,70 ± 7.2 µM,–
"COc1ccc(S(=O)(=O)N/N=C/c2cn(C)c3ccccc23)cc1 [5e, 4-methoxy-N’-[(E)-(1-methyl-1H-indol-3-yl)methylidene]benzenesulfonohydrazide]",19.9 ± 1.7 µM,–,> 1000 µM,–,> 1000 µM,180 ± 9.6 µM,83.3 ± 4.9 µM,–
COc1ccc2[nH]cc(/C=N/NC(=O)CNC(=O)OC(C)(C)C)c2c1 [3j],> 300 µM,–,> 1000 µM,17.4%,> 1000 µM,> 300 µM,150 ± 12.3 µM,–
"COc1ccc(/C=N/NC(=O)Cc2c[nH]c3ccccc23)cc1OC [3p, N’-[(E)-(3,4-dimethoxyphenyl)methylidene]-2-(1H-indol-3-yl)acetohydrazide]",116 ± 12.8 µM,–,> 1000 µM,24%,> 1000 µM,> 300 µM,87.4 ± 7.7 µM,–
"Cc1ccc(S(=O)(=O)N/N=C/c2c[nH]c3ccc(OCc4ccccc4)cc23)cc1 [5j, N’-{(E)-[5-(benzyloxy)-1H-indol-3-yl]methylidene}-4-methylbenzenesulfonohydrazide]",65.4 ± 0.1 µM,13.2%,> 1000 µM,56.9%,865 ± 159 µM,41.2 ± 4.2 µM,33.1 ± 0.1 µM,Absorbance Day 1 [6]: 0.83 ± 0.01; Absorbance Day 2 [6]: 0.83 ± 0.08; Absorbance Day 3 [6]: 0.84 ± 0.02; Absorbance Day 4 [6]: 0.83 ± 0.05; Absorbance Day 5 [6]: 0.82 ± 0.02; SI BChE [3]: 1.15; FRAP [8]: 18.59 ± 2.28 μMTE; ABTS Activity [9]: ≥100%; IC50 [9]: 2180 ± 160 µM
"COc1cc(/C=N/NC(=O)c2ccc(O)cc2O)ccc1O [3r, 2,4-dihydroxy-N’-[(E)-(4-hydroxy-3-methoxyphenyl)methylidene]benzohydrazide]",> 300 µM,–,> 1000 µM,16.9%,> 1000 µM,> 300 µM,156 ± 11.1 µM,Absorbance Day 1 [6]: 0.80 ± 0.04; Absorbance Day 2 [6]: 0.81 ± 0.01; Absorbance Day 3 [6]: 0.82 ± 0.02; Absorbance Day 4 [6]: 0.87 ± 0.09; Absorbance Day 5 [6]: 0.86 ± 0.09; FRAP [8]: 14.30 ± 0.56 μMTE; ABTS Activity [9]: 91.41 ± 0.47%; IC50 [9]: 2500 ± 230 µM
"O=S(=O)(N/N=C/c1ccc(Cl)cc1)c1ccccc1 [5l, N’-[(E)-(4-chlorophenyl)methylidene]benzenesulfonohydrazide]",117 ± 11.5 µM,–,> 1000 µM,–,> 1000 µM,131 ± 11.4 µM,99.5 ± 7.8 µM,–
"Cc1cc(C(C)(C)C)c(O)c(C(C)(C)C)c1 [BHT, butylated hydroxytoluene, reference compound]",–,–,–,–,–,–,–,Absorbance Day 1 [6]: 0.74 ± 0.07; Absorbance Day 2 [6]: 0.77 ± 0.03; Absorbance Day 3 [6]: 0.78 ± 0.06; Absorbance Day 4 [6]: 0.80 ± 0.06; Absorbance Day 5 [6]: 0.81 ± 0.09; DPPH Activity [7]: 7.78 ± 0.77%; FRAP [8]: 15.79 ± 0.58 μMTE; ABTS Activity [9]: 29.53 ± 1.65%; IC50 [9]: > 5000 µM
"O=C(N/N=C/c1ccc(O)c(O)c1)C1CCN(Cc2ccccc2)C1 (stereo not shown) [3g, 1-benzyl-N’-[(E)-(3,4-dihydroxyphenyl)methylidene]pyrrolidine-3-carbohydrazide]",110 ± 9.1 µM,2.74%,> 1000 µM,28.2%,> 1000 µM,> 300 µM,> 300 µM,AChE inhibitory activity in words [2]: practically inactive
"COc1ccc(S(=O)(=O)N/N=C/c2cn(C)c3ccc(OC)cc23)cc1 [5b, 4-methoxy-N’-[(E)-(5-methoxy-1-methyl-1H-indol-3-yl)methylidene]benzenesulfonohydrazide]",30.5 ± 3.2 µM,–,> 1000 µM,–,> 1000 µM,38.1 ± 3.5 µM,70.4 ± 4.9 µM,–
"O=S(=O)(N/N=C/c1cn(Cc2ccccc2)c2ccccc12)c1ccccc1 [5d, N’-[(E)-(1-benzyl-1H-indol-3-yl)methylidene]benzenesulfonohydrazide]",117 ± 11.5 µM,41.7%,> 1000 µM,–,> 1000 µM,140 ± 8.4 µM,99.5 ± 7.8 µM,–
"O=C(N/N=C/c1ccc(O)cc1O)C1CCN(Cc2ccccc2)C1 (stereo not shown) [3f, 1-benzyl-N’-[(E)-(2,4-dihydroxyphenyl)methylidene]pyrrolidine-3-carbohydrazide]",12.5 ± 2.4 µM,64.1%,550 ± 37.1 µM,57.2%,709 ± 41.3 µM,150 ± 11.2 µM,35.8 ± 5.5 µM,SI AChE ([2]; IC50(BChE)/IC50(AChE)): 1.28
"Cn1cc(/C=N/NC(=O)CNC(=O)OC(C)(C)C)c2ccccc21 [3l, tert-butyl(2-{(2E)-2-[(1-methyl-1H-indol-3-yl)methylidene]hydrazinyl}-2-oxoethyl)carbamate]",> 300 µM,–,> 1000 µM,39.1%,> 1000 µM,> 300 µM,107 ± 8.9 µM,–
"COc1ccc(S(=O)(=O)N/N=C/c2c[nH]c3ccc(OC)cc23)cc1 [5c, 4-methoxy-N’-[(E)-(5-methoxy-1H-indol-3-yl)methylidene]benzenesulfonohydrazide]",7.5 ± 2.4 µM,–,> 1000 µM,18.2%,> 1000 µM,25.7 ± 2.9 µM,48.3 ± 5.2 µM,–
